Measured values from patent US20060281786A1, “Compounds having activity at 5ht2c receptor and uses thereof” (priority 2003, published 2006).

melting point: 227 to 229 °C
SMILES: COc1cc2c3c(n(C)c2cc1Br)CN(c1ccc(OC)c(OCCN2CCCCC2)c1)C3=O.Cl
